{"source": "patent US10441568B2", "about": "“Nitroxide radicals for the treatment of diseases of the respiratory tract” (priority 2015, dated 2019)", "key": {"[1]": {"test_system": "mice with OVA-induced chronic asthma", "experiment": "Inflammatory cell counts in BAL fluid, severe (chronic) asthma model", "format": "in vivo", "description": "In a longer (chronic) murine model, mice were challenged 3 times a week for 4-5 weeks.\n(§1) Bronchoalveolar lavage (BAL) fluid (also referred to herein as “BALf”) and bronchial submucosal inflammation are characteristic features of asthma. Mice were euthanized with an overdose of 50 mg/kg pentobarbital and ice-cold phosphate buffer saline (PBS) (0.6 ml) was instilled into the lungs. BAL fluid was obtained by three aspirations via tracheal cannulation, centrifuged, and the supernatant collected and stored at −70° C. Cell pellets were re-suspended in PBS and 100 μl aliquots placed onto slides and centrifuged (200 g, 4° C., 10 minutes) in a cytospin machine. Induction of oxidative stress was evaluated using a 2′,7′-dichlorofluorescein fluorescence assay, and total IgE, IgG2a, panel of cytokines, transforming growth factors, collagen, protein nitration and lipid peroxidation were measured using commercial kits according to the manufacturer's recommendations. […]\n(§2) 3-CP was administered orally (1 weight percent in chow) during the entire experiment, and dexamethasone (Dex) was administered via IP injection (1 mg/kg) one hour before each challenge. Inflammatory cell counts and pulmonary collagen content were then evaluated according to procedures described hereinabove, in order to assess effects on inflammation and remodeling, respectively."}, "mucin production": {"test_system": "mucin production", "experiment": "Mucin production by PAS staining of lung tissue, OVA asthma model", "format": "in vivo, mice", "description": "(§3) Following aspiration of BAL as described hereinabove, a thoracotomy was performed, and the right main bronchus was tied. The left lung was fixed by means of intrabronchial infusion with 1 ml of 4% formaldehyde, and then immersed in fixative (10% (v/v) neutral buffered formalin) for 24 hours at 4° C. Transverse sections of the left lung were embedded in paraffin, and […] sections were stained with hematoxylin and eosin (H&E) by Hadassah Hospital Pathology Service (Jerusalem, Israel). In addition, periodic acid-Schiff (PAS) staining was performed on lung tissue, and the degree of mucin production was measured from PAS staining.\n(§4) In order to evaluate the effect of 3-CP on lung pathology, animals in an ovalbumin-induced asthma model were treated with 3-CP, and killed by abdominal aortic transaction and exsanguination, according to procedures described hereinabove. Lung tissue was examined by hematoxylin and eosin (H&E) staining, the degree of mucin production was determined from periodic-acid-Schiff (PAS) staining."}, "[2]": {"test_system": "mice with OVA-induced chronic asthma", "experiment": "Pulmonary collagen content, severe (chronic) asthma model", "format": "in vivo", "settings": "FIG. 16", "description": "as §1, §2"}, "[3]": {"test_system": "bleomycin-induced pulmonary fibrosis", "experiment": "Collagen content in lung tissue, bleomycin pulmonary fibrosis model", "format": "in vivo, mice", "settings": "3-CP 150 mg/kg daily intranasal, 14 days, FIG. 20", "description": "(§5) Bronchoalveolar lavage (BAL) fluid (also referred to herein as “BALf”) and bronchial submucosal inflammation are characteristic features of asthma. Mice were euthanized with an overdose of 50 mg/kg pentobarbital and ice-cold phosphate buffer saline (PBS) (0.6 ml) was instilled into the lungs. BAL fluid was obtained by three aspirations via tracheal cannulation, centrifuged, and the supernatant collected and stored at −70° C. Cell pellets were re-suspended in PBS and 100 μl aliquots placed onto slides and centrifuged (200 g, 4° C., 10 minutes) in a cytospin machine. Induction of oxidative stress was evaluated using a 2′,7′-dichlorofluorescein fluorescence assay, and total IgE, IgG2a, panel of cytokines, transforming growth factors, collagen, protein nitration and lipid peroxidation were measured using commercial kits according to the manufacturer's recommendations. A Sircol™ collagen assay kit was obtained from Biocolor Life Sciences Assays, a protein nitration assay kit was obtained from Abcam, and other assay kits were obtained from PeproTech Asia. […]\nThe degree of fibrosis was evaluated by measuring collagen content in lung tissue."}, "[4]": {"test_system": "ovalbumin-induced asthma model", "experiment": "Lung histopathology, H&E pathology scoring, OVA asthma model", "format": "in vivo, mice", "settings": "FIG. 9", "description": "as §3, §4"}, "TGF-β1": {"test_system": "TGF-β1", "experiment": "TGF-β1 level in bleomycin pulmonary fibrosis model", "format": "in vivo, mice", "settings": "3-CP 150 mg/kg daily intranasal, 14 days, FIG. 19", "description": "as §5\nThe effect of 3-CP on bleomycin-induced inflammation was evaluated by determining lung resistance, total inflammatory cell count, and TGF-β1 levels, according to procedures described hereinabove."}, "3-nitrotyrosine (3-NT)": {"test_system": "3-nitrotyrosine (3-NT)", "experiment": "Protein nitration (3-nitrotyrosine) in lung homogenates, OVA asthma model", "format": "in vivo, mice", "settings": "3-CP via all tested modes of delivery (oral, IP, IN), FIG. 8", "description": "Bronchoalveolar lavage (BAL) fluid (also referred to herein as “BALf”) and bronchial submucosal inflammation are characteristic features of asthma. Mice were euthanized with an overdose of 50 mg/kg pentobarbital and ice-cold phosphate buffer saline (PBS) (0.6 ml) was instilled into the lungs. BAL fluid was obtained by three aspirations via tracheal cannulation, centrifuged, and the supernatant collected and stored at −70° C. Cell pellets were re-suspended in PBS and 100 μl aliquots placed onto slides and centrifuged (200 g, 4° C., 10 minutes) in a cytospin machine. Induction of oxidative stress was evaluated using a 2′,7′-dichlorofluorescein fluorescence assay, and total IgE, IgG2a, panel of cytokines, transforming growth factors, collagen, protein nitration and lipid peroxidation were measured using commercial kits according to the manufacturer's recommendations. A Sircol™ collagen assay kit was obtained from Biocolor Life Sciences Assays, a protein nitration assay kit was obtained from Abcam, and other assay kits were obtained from PeproTech Asia.\nIn order to determine whether 3-CP reduces protein nitration, a form of cell damage induced by peroxynitrite (an anion generally believed to be formed in vivo by a reaction of superoxide radical and nitric oxide), lung homogenates were assayed for 3-nitrotyrosine (3-NT) levels."}, "[5]": {"experiment": "Nitroxide concentration measurement by EPR in mouse blood and tissue", "format": "in vivo", "settings": "mice", "description": "Electron paramagnetic resonance (EPR) spectroscopy was used to determine residual levels of nitroxide in mouse tissue. Blood samples or tissue samples were diluted with 0.5 ml phosphate buffer (40 mM, pH 7.4) or water, inserted into a flexible capillary placed in a quartz tube installed within the EPR spectrometer cavity and assayed for residual nitroxide. A similar procedure was used to determine the residual nitroxide in tissue homogenates of various organs, which were corrected for blood contamination spectrophotometrically by following the absorption of oxyhemoglobin at 400-600 nm. Measured EPR signals were compared to those of a nitroxide standard solution.\nIn order to determine total hydroxylamine and nitroxide concentrations, 2 mM K3Fe(CN)6 was added to samples in order to oxidize hydroxylamines to the respective nitroxide, and the nitroxide level was determined by EPR spectroscopy as described hereinabove.\nControl and experimental groups contained 10 mice each. The effects of the nitroxides were investigated by feeding the mice ad libitum a diet of nitroxide-containing chow (1 weight percent) during both ovalbumin (OVA)-induced sensitization and challenging periods (days −2-19), during the sensitization period (days −2-11) or challenge period (days 13-19). Nitroxide-containing chow were prepared by dissolving 500 grams chow in a minimum volume of water containing 5 grams nitroxide and 5 grams commercial chicken soup powder, preparing the chow and drying it at 37° C. (animals were reluctant to eat nitroxide-containing chow until chicken soup powder was added).\n3-CP was also administered using 3 daily intraperitoneal (IP) injections (200 μl, 0.15 M, ˜300 mg/kg) 0.5 hour prior to the challenge with OVA aerosol, or by nasal instillation (50 μl, 0.3 M, ˜150 mg/kg) twice a day 0.5 hour prior to the challenge with OVA aerosol and 6 hours later without exceeding its maximally tolerated dose, which has been previously established to be 300-500 mg/kg. Both 3-CP and TPL were non-toxic when administered orally or via IP injection to untreated OVA-challenged mice for 22 days."}, "[6]": {"settings": "3-CP oral, dexamethasone 1 mg/kg IP before each challenge"}, "[7]": {"settings": "nasal instillation (50 μL, 0.3 M), FIG. 2"}, "[8]": {"settings": "oral administration (1 weight percent nitroxide in chow), FIG. 1"}, "[9]": {"settings": "stated after the oral administration data"}}}
{"smiles": "CC1(C)CC(C(N)=O)C(C)(C)N1[O]", "note": "(stereo not shown) [3-CP, 3-Carbamoyl-2,2,5,5-tetramethyl-pyrrolidin-1-oxyl]", "values": [{"measurement": "effect on inflammatory cell counts in BAL fluid", "setting": "[1]; 3-CP oral 1 weight percent in chow during entire experiment, 4 weeks OVA challenge, FIGS. 15A and 15B", "result": "reduced inflammatory cell counts, and especially eosinophil counts"}, {"measurement": "reducing BAL inflammatory cell counts, 3-CP compared with dexamethasone", "setting": "[1]; [6]", "result": "at least as effective as dexamethasone"}, {"measurement": "effect on mucin levels, PAS scoring", "setting": "mucin production; 3-CP via all tested modes of delivery, FIGS. 10 and 11", "result": "reduced the mucin levels"}, {"measurement": "reducing mucin levels, 3-CP compared with dexamethasone", "setting": "mucin production; FIG. 10", "result": "at least as effective as dexamethasone"}, {"measurement": "effect on increase in collagen content of the lung", "setting": "[2]; 3-CP oral 1 weight percent in chow during entire experiment", "result": "completely reversed the increase in collagen content"}, {"measurement": "reducing collagen content, 3-CP compared with dexamethasone", "setting": "[2]; [6]", "result": "more effective than dexamethasone treatment at reducing collagen content"}, {"measurement": "effect on bleomycin-induced pulmonary fibrosis, pulmonary collagen content", "setting": "[3]", "result": "significantly inhibited"}, {"measurement": "effect on degree of lung pathology, H & E pathology scoring", "setting": "[4]; 3-CP via all tested modes of delivery", "result": "reduced the degree of lung pathology"}, {"measurement": "H & E lung pathology, 3-CP compared with dexamethasone", "setting": "[4]", "result": "more effective in this respect than treatment with dexamethasone"}, {"measurement": "effect on bleomycin-induced increase in TGF-β1 expression in lungs", "setting": "TGF-β1", "result": "significantly reduced"}, {"measurement": "effect on pulmonary 3-NT levels", "setting": "3-nitrotyrosine (3-NT)", "result": "markedly suppressed 3-NT levels as compared to the vehicle control as well as treatment with dexamethasone"}, {"measurement": "residual concentration of the respective hydroxylamine compared with the nitroxide", "setting": "[5]; data not shown", "result": "higher than those of the therapeutically active nitroxide free radical"}, {"measurement": "absolute concentration in lung tissue relative to blood", "setting": "[5]; [7]", "result": "about twice the concentration in the blood"}, {"measurement": "half-life of reduction/clearance from blood and lung tissue", "setting": "[5]; [7]", "result": "about 80 minutes"}, {"measurement": "time course of residual concentration in blood and lung tissue", "setting": "[5]; [7]", "result": "decreased exponentially with time"}, {"measurement": "blood concentration, 3-CP compared with TPL", "setting": "[5]; [8]", "result": "higher than TPL blood concentrations"}, {"measurement": "residual concentration of nitroxide in blood", "setting": "[5]; [8]", "result": "detectable levels"}, {"measurement": "residual concentration in the lungs compared with other organs", "setting": "[5]; [9]", "result": "significantly higher than in the heart, spleen, liver, kidney and brain"}, {"measurement": "residual concentration in the lungs relative to that in the blood", "setting": "[5]; [9]", "result": "about 65%"}]}
